Columns and labels:
chronic rhinosinusitis = experiment: double-blind placebo-controlled clinical trial in chronic rhinosinusitis; format: in vivo, human; details: 625 mg terbinafine base equivalent as hydrochloride orally once daily for 6 weeks, versus placebo, patients
Procedure: A prospective, double-blind, parallel-group, multi-center, placebo-controlled study comparing the safety and efficacy of 625 mg of terbinafine base equivalent as hydrochloride daily, or a molar equivalent in other acid addition salt or free base form, for 6 weeks, versus placebo in the treatment of chronic rhinosinusitis is performed. The study duration is a total of 18 weeks and consists of three periods: a) screening (3 weeks, from week −3 to −1); b) treatment (6 weeks, from baseline of treatment week to week +6); and c) follow-up assessment (9 weeks, from week +7 to +15).
Sixty patients, male and female, between the age of 18 and 65 years, are randomized to receive six weeks of terbinafine therapy or placebo.
Additional inclusion criteria for admission to the study is as follows: • Patients with signs and symptoms of chronic non-invasive rhinosinusitis (CRS) for at least 3 months prior to screening. […]

[1] = test system: molds and dimorphic fungi, pathogenic yeasts of the genera Pityrosporum, Candida and Rhodotorula; details: many pathogenic yeasts (Pityrosporum, Candida, Rhodotorula); cited from earlier work
[2] = test system: ergosterol biosynthesis (squalene epoxidase); details: blocks squalene epoxidase; cited from earlier work

CN(C/C=C/C#CC(C)(C)C)Cc1cccc2ccccc12 [Terbinafine]
efficacy relative to primary (CT total opacification score) and secondary variables (chronic rhinosinusitis): therapeutically effective regimen
activity in vitro [1]: active in vitro
inhibition of ergosterol biosynthesis [2]: potent inhibitor

Source: patent publication US20050209339A1, “Methods for the treatment of sinusitis” (priority 2002, published 2005)
